We go through ten compounds from US4687481A, “Transdermal drug delivery system” (priority 1986, dated 1987).

For data set [1] the following is noted: cited from earlier work; for FLUX (Feldman 1969) / FLUX (SCHAEFER 1979): human skin; for flux rates in comparison to the corticosterones: Table I.
Data set [2] can be described thus: In vitro mouse skin permeation from patch, Franz diffusion cell. Particulars: for Rate of permeation: 2.4 sq. cm., estradiol value is a minimum not corrected for saturation effects, maximum flux expected nearly 2-3 times greater. As for the experimental part: A typical sustained release for the release of levonorgestrel is: a 9.4 square centimeter of Johnson and Johnson Rayon™ First Aid Tape-Hypo-Allergenic--1 inch wide, 1.5 inch long for the impervious backing and to form the adhesive layer and a 2 square centimeter ID--2.25 square centimeter OD--2/3 mm thick teflon ring. […] Microspheres are prepared from the levonorgestrel and the poly-L(-)lactide as follows: Prepare a 2.5 percent wt/v solution of polyvinyl alcohol (PVA) #523 in one liter of distilled water; prepare a 15 percent wt/v solution of poly-L-(-)lactide, approx. 1 R.S.V. in 300 ml of reagent grade methylene chloride; mix 5 ml of the poly-L-(-)lactide solution, 10 ml methylene chloride and 5 grams of levonorgestrel to form a uniform slurry; take the 1 l of PVA solution and pour it into a 2 l stainless steel beaker. Stir at approx. 1000 RPM (1550×0.7) and heat at low temperature, (approx. 35° C.); add levonorgestrel slurry. Heat approx. 4 hours, then turn off heat and stirrer; wet sieve off the 45-106 um size fraction; and dry in vacuum oven at room temperature and recover the solid microspheres. Then 45 mg of these solid microspheres are mixed with 85 mg of Vaseline or a viscous vehicle (trademark of Chesebrough-Pond's, Inc.). The Teflon ring is placed in the center on the adhesive side of the tape and the Vaseline mixture is then spread to uniform thickness iside the Teflon ring. The porous membrane is then placed over the mixture of Vaseline to form a complete patch. An estradiol patch is similarly prepared using 70 mg of Vaseline with 38 mg of microspheres containing estradiol.
In Vitro mouse skin permeation studies were conducted with a 2.4 square centimeter patch which was placed in a 20 mm diameter water jacketted Franz diffusion cell mounted on a 9-cell Drive Unit/Mounting Assembly. The water jacket temperature of the cells was controlled by a bath and water circulator which is maintained at 37° C. This system is widely used in the pharmaceutical industry for measuring the permeability of percutaneous patches across animal and cadaver skins.
Release of each drug was determined as a function of time by analysis of aliquots of the contents of the reservoir in a Waters High Pressure Liquid Chromatograph (HPLC) using a u Bondpak C-18 radial pack column with a mobile phase of 60% ethanol in water. The steroids were measured in a uv detector at a wavelength of 280 nm for estradiol and 254 for levonorgestrel.
Pieces of full thickness abdominal skin were freshly excised from a 6 week old male nude mice and mounted individually on the Franz diffusion cell. Before use, the skins were washed three times in 200 ml normal saline to remove extraneous and other soluble material. The face membrane of the system was applied to the stratum corneum side of the skin. The skin permeation profile of each drug was followed by removing the liquid from the receptor compartment for assay at the appropriate intervals. The compartment was then filled with fresh saline and the permeation continued. Release of the drug was monitored in a liquid chromatograph (HPLC).

The procedure of data set [3]:
To obtain maximum flux rates aliquots of the reservoir were analyzed during a period of 8 hours on day 2, day 3, and day 7.

The conditions of data set [4]: cited from earlier work; for oral effectiveness: "first pass" inactivation.
For data set [5] the following is noted: cited from earlier work.
For data set [6] the following is noted: implantable drug delivery systems; cited from earlier work.
For data set [7] the following is noted: cited from earlier work. This is another data set of the same source.

Where “and” joins values, the source holds several entries; their conditions need not be identical. Equal values may be shown once. Entries after “also recorded” stand apart in the source; their conditions may differ. Read-outs that look alike come from different tables or passages of the source. Where only a bound is given, the exact number is not on record here.

`C[C@]12C[C@H](O)[C@H]3[C@@H](CCC4=CC(=O)CC[C@@]43C)[C@@H]1CC[C@@H]2C(=O)CO` [Corticosterone]: in data set [1], the “FLUX (Feldman 1969)” value was 7.5 × 10^-12 MOLES/CM^2 HR.

For `C[C@]12CC[C@@H]3c4ccc(O)cc4CC[C@H]3[C@@H]1CC[C@@H]2O` [Estradiol, 17β estradiol], the permeation rate in data set [2] (2.4 square centimeter estradiol patch, per day, mass unit not given) is recorded as 5. The “delivery across freshly excised mouse skin” value in data set [2] (2.4 square centimeter patch (DermaPatch)) was found to be 5 micrograms/day. In data set [2] (Table 3, 2.4 sq. cm. patch), the Minimum dose absorbed is over 5.2 mcg./24 hr. In data set [2] (Table 3), the Rate of permeation is recorded as over 0.09 mcg./sq. cm./hr. Also, the mouse skin permeation in data set [2] (day 1) was determined as 6 Micrograms/2.4 sq. cm; in data set [2] (day 2) it was 10 Micrograms/2.4 sq. cm; in data set [2] (day 3), 16 Micrograms/2.4 sq. cm. The “Estimated size needed to deliver required dose” value in data set [3] is 5. Besides, the “flux rates in comparison to the corticosterones” value in data set [1] is listed as “fairly high”. Moreover, the “FLUX (Feldman 1969)” value in data set [1] is reported as 8.2 × 10^-11 MOLES/CM^2 HR. For the same compound, the “FLUX (SCHAEFER 1979)” value in data set [1] is 5.8 × 10^-10 MOLES/CM^2 HR and 4.6 × 10^-10 MOLES/CM^2 HR. Further, the oral effectiveness entry in data set [4] was “limited oral effectiveness”.

For `C[C@]12CC[C@@H]3c4ccc(O)cc4CC[C@H]3[C@@H]1C[C@@H](O)[C@@H]2O` [Estriol], in data set [1], the “FLUX (SCHAEFER 1979)” value is reported as 7.8 × 10^-11 MOLES/CM^2 HR.

Regarding `C[C@]12CCC(=O)C=C1CC[C@@H]1[C@@H]2[C@@H](O)C[C@@]2(C)[C@H]1CC[C@]2(O)C(=O)CO` [Hydrocortisone], the “FLUX (Feldman 1969)” value in data set [1] is listed as 2.5 × 10^-11 MOLES/CM^2 HR. In addition, the “increase in the penetration of hydrocortisone” value in data set [5] (modified skin, when the skin is occluded) is given as “tenfold increase”. Also, in data set [5] (through modified skin, occluded), the “penetration of hydrocortisone when the skin is occluded” value is 10%. In addition, the “penetration of hydrocortisone before increase” value in data set [5] (through modified skin, starting value, not occluded) is given as 1%.

`C#C[C@]1(O)CC[C@H]2[C@@H]3CCC4=CC(=O)CC[C@@H]4[C@H]3CC[C@@]21CC` [Levonorgestrel, levonorgestrel]: in data set [2], the Minimum dose absorbed was 43-160 mcg./24 hr. Moreover, the “delivery across freshly excised mouse skin” value in data set [2] worked out at 43 micrograms/day. In addition, the Rate of permeation in data set [2] (Table 3) is given as 0.75-2.8 mcg./sq. cm./hr. Besides, the “skin permeation / release profile” value in data set [2] (abdominal skin of nude mouse) is on record as “zero order release; also recorded: zero order rate”. For the same compound, the “average rate of release (maximum flux rates)” value in data set [2] (aliquots during 8 hours on day 2, day 3 and day 7, 2.4 square centimeter patch) was 6.7 micrograms per hour; in data set [2] (from 6.7 micrograms per hour, days 2, 3 and 7), 160 micrograms per day/2.4 square/centimeters. Moreover, the mouse skin permeation entry is “about 25 Micrograms/2.4 sq. cm” in data set [2] (day 1); 90 Micrograms/2.4 sq. cm in data set [2] (day 2); 140 Micrograms/2.4 sq. cm in data set [2] (day 3); 270 Micrograms/2.4 sq. cm in data set [2] (day 7); 375 Micrograms/2.4 sq. cm in data set [2] (day 8); 405 Micrograms/2.4 sq. cm in data set [2] (day 9). For the same compound, the mouse skin permeation is reported as 570 Micrograms/2.4 sq. cm in data set [2] (day 10), 505 Micrograms/2.4 sq. cm in data set [2] (day 11) and 590 Micrograms/2.4 sq. cm in data set [2] (day 14). Besides, the “rate of skin permeation” value in data set [2] (during 24 hours, membrane area 2.4 square centimeters) was “approximately 43 ug/day”. Moreover, the “Estimated size needed to deliver required dose” value in data set [3] (dose required 20 (levonorgestrel) or 25 (estradiol) mcg./day) is recorded as 0.5 sq. cm. For the same compound, the “estimated delivery from a patch” value in data set [3] (patch surface area 0.5 square centimeters) is 20 micrograms per day; in data set [3] (patch surface area 5 square centimeters) it was 2.5 milligrams per day. Further, in data set [6], the “dose sufficient to prevent fertility” value was 30 micrograms per day.

As to `CC(=O)[C@H]1CC[C@H]2[C@@H]3CCC4=CC(=O)CC[C@]4(C)[C@H]3CC[C@]12C` [Progesteone, progesterone], in data set [1], the “flux rates in comparison to the corticosterones” value is reported as “fairly high” and the “FLUX (Feldman 1969)” value was 3.4 × 10^-11 MOLES/CM^2 HR. Besides, the “accumulation in subcutaneous tissue and underlying muscle” value in data set [7] (in vivo) is on record as “more pronounced with percutaneous than with subcutaneous administration”.

Take `C#C[C@]1(O)CC[C@H]2[C@@H]3CCc4cc(O)ccc4[C@H]3CC[C@@]21C` [ethinylestradiol]: in data set [4], the oral effectiveness entry is recorded as “active orally”. In addition, in data set [4] (oral), the “inactivation by the liver and other tissues” value was “very low”.

Consider `CN(Cc1cnc2nc(N)nc(N)c2n1)c1ccc(C(=O)N[C@@H](CCC(=O)O)C(=O)O)cc1` [methotrexate], for which the “reduction of the duration of the reservoir” value in data set [7] (irritation increases epidermal turnover) is recorded as about 50%.

For `CN1CCCC1c1cccnc1` (stereo not shown) [nicotine], in data set [7] (compound which very rapidly penetrates and diffuses), the “period maintained in the reservoir” value is 3 to 4 days.

In the case of estrogen, in data set [7] (percutaneous versus subcutaneous administration), the “accumulation in subcutaneous tissue and underlying muscle” value is “more pronounced with percutaneous than with subcutaneous administration”.
